Common to all, as to type: cell-based
Test [1] has as its system HTT mRNA. The experiment in a line: Splicing RT-qPCR assay (THP), Table 2A. To be noted: Table 2A (THP); for AC50: AJ mRNA increase, read-out: HTT AJ (increase in alternative junction mRNA, AC50); for pIC50: CJ mRNA decrease, read-out: HTT CJ (decrease in canonical junction mRNA, IC50). On the technique in general: Real-time PCR tracks product formation cycle by cycle.
The test system of test [2] is MYB mRNA. The experiment in a line: Splicing RT-qPCR assay (THP), Table 2A. Particulars: Table 2A (THP); for AC50: AJ mRNA increase, read-out: MYB AJ (increase in alternative junction mRNA, AC50); for pIC50: CJ mRNA decrease, read-out: MYB CJ (decrease in canonical junction mRNA, IC50).
Test [3] concerns HTT mRNA. The test is described as follows: Gene panel canonical junction qPCR assay, decrease in CJ mRNA, Table 3. Particulars: decrease in canonical junction (CJ) mRNA, gene panel qPCR, Table 3. The method, then: (§1) Compounds described herein were used to modulate RNA transcript abundance in cells. The expression of a target mRNA was measured by detecting the formation of an exon-exon junction in the canonical transcript (CJ). A compound mediated exon-inclusion event was detected by observing an increase in formation of a new junction with an alternative exon (AJ). Real-time qPCR assays were used to detect these splicing switches and interrogate the potency of various compounds towards different target genes. A high-throughput real time quantitative PCR (RT-qPCR) assay was developed to measure these two isoforms of the mRNA (CJ and AJ) for exemplary genes, such as HTT, SMN2, and MYB, together with a control housekeeping gene, GAPDH or GUSB or PPIA, used for normalization. Briefly, the A673 or K562 cell line was treated with various compounds described herein (e.g., compounds of Formula (I)). After treatment, the levels of the HTT, MYB, or SMN2 mRNA targets were determined from each sample of cell lysate by cDNA synthesis followed by qPCR.
(§2) The A673 cell line was cultured in DMEM with 10% FBS. Cells were diluted with full growth media and plated in a 96-well plate (15,000 cells in 100 ul media per well). The plate was incubated at 37° C. with 5% CO2 for 24 hours to allow cells to adhere. An 11-point 3-fold serial dilution of the compounds was made in DMSO then diluted in media in an intermediate plate. Compounds were transferred from the intermediate plate to the cell plate with the top dose at a final concentration of 10 uM in the well. Final DMSO concentration was kept at or below 0.25%. The cell plate was returned to the incubator at 37° C. with 5% CO2 for an additional 24 hours.
(§3) The K562 cell line was cultured in IMDM with 10% FBS. For K562, cells were diluted with full growth media and plated in either a 96-well plate (50,000 cells in 50 uL media per well) or a 384-well plate (8,000-40,000 cells in 45 uL media per well). An 11-point 3-fold serial dilution of the compounds were made in DMSO then diluted in media in an intermediate plate. Compound was transferred from the intermediate plate to the cell plate with the top dose at a final concentration of 10 uM in the well. Final DMSO concentration was kept at or below 0.25%. Final volume was 100 uL for 96-well plate and 50 uL for 384-well plate. The cell plate was then placed in an incubator at 37° C. with 5% CO2 for 24 hours.
(§4) The data analysis was performed by first determining the ΔCt vs the housekeeper gene. This ΔCt was then normalized against the DMSO control (ΔΔCt) and converted to RQ (relative quantification) using the 2^(−ΔΔCt) equation. The RQ were then converted to a percentage response by arbitrarily setting an assay window of 3.5 and 4.0 ΔCt for HTT-CJ and MYB-CJ respectively and an assay window of 9 and 3 ΔCt for HTT-AJ and MYB-AJ in 96 well format (50,000 K562 cells/well and 15,000 A673 cells per well) and an assay window of 3 and 4 ΔCt for HTT-CJ and MYB-CJ respectively and an assay window of 5 and 3 ΔCt for HTT-AJ and MYB-AJ respectively in 384 well format (8,000 K562 cells/well example). […] The percentage response was then fitted to the 4 parametric logistic equation to evaluate the concentration dependence of compound treatment. The increase in AJ mRNA is reported as AC50 (compound concentration having 50% response in AJ increase) while the decrease in CJ mRNA levels is reported as IC50 (compound concentration having 50% response in CJ decrease).
(§5) Additional studies were carried out for a larger panel of genes using the protocol provided above. The junction between flanking upstream and downstream exons was used to design canonical junction qPCR assays. At least one of the forward primer, reverse primer or the CY5-labeled 5′ nuclease probe (with 3′ quencher such as ZEN/Iowa Black FQ) was designed to overlap with the exon junction to capture the CJ mRNA transcript. […]

Test [4] concerns MYB mRNA. Described as above. To be noted: decrease in canonical junction (CJ) mRNA, gene panel qPCR, Table 3. The procedure:
as §1, §2, §3, §4, §5

Test [5] relates to SH-SY5Y (human neuroblastoma) cells. The test is described as follows: Cell viability, Cell Titer Glo 2.0 assay. Particulars: read-out: Viability SHSY5Y.3 GI50. The procedure:
Compounds described herein were screened for toxicity in K562 (human chronic myelogenous leukemia) and SH-SY5Y (human neuroblastoma) cells using a Cell Titer Glo 2.0 assay.
• Promega CellTiter-Glo® 2.0 Cell Viability Assay (cat #G9241) • Corning 384-well TC-treated microplates (cat #3570)
Cells were plated at 500 cells/well (K562 cells) in 45 μL of IMDM supplemented with 10% FBS in a 384-well opaque plate. Wells containing only medium were used as a blank control. Test compounds (e.g., compounds of Formula (I) or (II) were first serially diluted in DMSO then diluted 1:100 with IMDM+10% FBS. The final concentration of DMSO was 0.1% in each well. The cells were incubated for 72 hours at 37° C. and 5% CO2 before assaying with Cell Titer Glo 2.0 reagent.

pIC50: −log10 of the molar value.

As to `CCNC1CCN(c2ccc(C(=O)Nc3cc(CO)c4nc(C)cn4c3)c3nn(C)cc23)CC1` [Compound 329, 4-[4-(ethylamino)-1-piperidyl]-N-[8-(hydroxymethyl)-2-methyl-imidazo[1,2-a]pyridin-6-yl]-2-methyl-indazole-7-carboxamide], the values for the concentration at half-maximal activity (AC50) in the test with HTT mRNA [1] and with MYB mRNA [2] were 1 to 10 µM and 0.1 to 1 µM, respectively. Moreover, the negative logarithm of the IC50 (pIC50) in the test with HTT mRNA [1] is under 5.00; in the test on MYB mRNA [2] it was 6.00 to 7.00; in the test on HTT mRNA [3], under 5.00; in the test with MYB mRNA [4], 6.00 to 7.00. Further, the GI50 in test [5] was 1 to 10 µM.

For `COc1c(NC(=O)c2c(F)cc(N3CCS(=N)(=O)CC3)c3cn(C)nc23)cn2cc(C)nc2c1F` [Compound 330, 6-fluoro-N-(8-fluoro-7-meth-oxy-2-methyl-imidazo[1,2-a]-pyridin-6-yl)-4-(1-imino-1-oxo-1,4-thiazinan-4-yl)-2-methyl-indazole-7-carboxamide], the half-maximal activity concentration (AC50) with HTT mRNA [1] was over 10 µM; in the test with MYB mRNA [2], 0.1 to 1 µM. Besides, the pIC50 in the test with HTT mRNA [1] is under 5.00; in the test with MYB mRNA [2] it was 5.00 to 6.00; with HTT mRNA [3], under 5.00; in the test on MYB mRNA [4], 5.00 to 6.00. Besides, in test [5], the GI50 was over 10 µM.

With `CCNC1CCN(c2cc(F)c(C(=O)Nc3cn4cc(C)nc4cc3OC)c3nn(C)cc23)CC1` [Compound 331, 4-[4-(ethylamino)-1-piperidyl]-6-fluoro-N-(7-methoxy-2-methyl-imidazo [1,2-a]pyridin-6-yl)-2-methyl-indazole-7-carboxamide], the concentration at half-maximal activity (AC50) in the test on HTT mRNA [1] was 0.1 to 1 µM; with MYB mRNA [2] it was under 0.1 µM. Also, the pIC50 in the test with HTT mRNA [1] was 6.00 to 7.00; in the test with MYB mRNA [2], over 7.00; in the test on HTT mRNA [3] it was 6.00 to 7.00; in the test on MYB mRNA [4], over 7.00. Besides, the GI50 in test [5] was 1 to 10 µM.

`CCNC1CCN(c2cc(O)c(C(=O)Nc3cn4cc(C)nc(C)c4n3)c3nn(C)cc23)CC1` [Compound 332, N-(6,8-dimethylimidazo[1,2-a]pyrazin-2-yl)-4-(4-(ethylamino)piperidin-1-yl)-6-hydroxy-2-methyl-2H-indazole-7-carboxamide 2,2,2-trifluoroacetate]: the concentration at half-maximal activity (AC50) was over 10 µM in the test with HTT mRNA [1] and 0.1 to 1 µM in the test on MYB mRNA [2]. For the same compound, the negative-log IC50 (pIC50) was under 5.00 in the test on HTT mRNA [1], 6.00 to 7.00 in the test on MYB mRNA [2], under 5.00 with HTT mRNA [3] and 6.00 to 7.00 in the test on MYB mRNA [4]. Also, the concentration for 50% growth inhibition (GI50) in test [5] was in the range of 1 to 10 µM.

`CCNC1CCN(c2cc(OC)c(C(=O)Nc3cn4cc(C)nc(C)c4n3)c3nn(C)cc23)CC1` [Compound 333, N-(6,8-dimethylimidazo[1,2-a]pyrazin-2-yl)-4-[4-(ethylamino)-1-piperidyl]-6-methoxy-2-methyl-indazole-7-carboxamide]: the half-maximal activity concentration (AC50) with HTT mRNA [1] and in the test with MYB mRNA [2] was over 10 µM in each case. Moreover, the negative logarithm of the IC50 (pIC50) in the test on HTT mRNA [1], in the test on MYB mRNA [2], in the test on HTT mRNA [3] and in the test on MYB mRNA [4] was under 5.00 in each case. Also, in test [5], the concentration for 50% growth inhibition (GI50) is over 10 µM.

As to `Cc1cn2cc(NC(=O)c3c(F)cc(N4CCC(NC5CC5)CC4)c4cn(C)nc34)nc2c(C)n1` [Compound 334, 4-(4-(cyclopropylamino)-piperidin-1-yl)-N-(6,8-dimethyl-imidazo[1,2-a]pyrazin-2-y1)-6-fluoro-2-methyl-2H-indazole-7-carboxamide bis(2,2,2-trifluoroacetate)], the half-maximal activity concentration (AC50) in the test with HTT mRNA [1] was 1 to 10 µM; in the test with MYB mRNA [2] it was under 0.1 µM. Besides, the pIC50 with HTT mRNA [1] was under 5.00; with MYB mRNA [2], 6.00 to 7.00; with HTT mRNA [3], under 5.00; with MYB mRNA [4], 6.00 to 7.00. Further, in test [5], the GI50 lay in the range of 0.1 to 1 µM.

In the case of `CCNC1CCN(c2cc(Cl)c(C(=O)Nc3cn4cc(C)nc4c(F)c3OC)c3nn(C)cc23)CC1` [Compound 335, 6-chloro-4-[4-(ethylamino)-1-piperidyl]-N-(8-fluoro-7-methoxy-2-methyl-imidazo[1,2-a]pyridin-6-yl)-2-methyl-indazole-7-carboxamide], the AC50 in the test with HTT mRNA [1] and in the test with MYB mRNA [2] was under 0.1 µM in each case. For the same compound, the negative logarithm of the IC50 (pIC50) in the test on HTT mRNA [1], in the test with MYB mRNA [2], in the test with HTT mRNA [3] and with MYB mRNA [4] was over 7.00 each time. In addition, in test [5], the GI50 was under 0.1 µM.

The term AC50 denotes the concentration giving half of the maximal activity seen. One may read the pIC50 as −log10 of the IC50, conventionally taken in molar units. Usually GI50 stands for the concentration at which growth is held to half of that of the control.
